ChEMBL document CHEMBL4373717, “Coumarin-containing hybrids and their anticancer activities” (Eur J Med Chem, 2019)
Values after ≈ are worked out from the molar mass of the structure shown.

Experiments:
Format in all cases: functional, cell-based
HepG2 [1] = assay: Antiproliferative activity against human HepG2 cells after 72 hrs by ELISA; settings: HepG2, 72 h
MCF7 [2] = assay: Antiproliferative activity against human MCF7 cells after 72 hrs by ELISA; settings: MCF7, 72 h
Caco-2 [3] = assay: Antiproliferative activity against human Caco2 cells after 72 hrs by ELISA; settings: Caco-2, 72 h
HeLa = assay: Cytotoxicity against human HeLa cells assessed as reduction in cell viability after 72 hrs by MTT assay
Caco-2 [4] = assay: Cytotoxicity against human Caco2 cells assessed as reduction in cell viability after 72 hrs by MTT assay; settings: Caco-2, 72 h
K562 = assay: Cytotoxicity against human K562 cells assessed as reduction in cell viability after 72 hrs by MTT assay; settings: K562, 72 h
MCF7 [5] = assay: Cytotoxicity against human MCF7 cells assessed as reduction in cell viability by MTT assay; settings: Homo sapiens, MCF7
HepG2 [6] = assay: Cytotoxicity against human HepG2 cells assessed as reduction in cell viability by MTT assay; settings: Homo sapiens, HepG2
Hep 3B2 = assay: Anticancer activity against human Hep3B cells by CCK8 assay
A2780 = assay: Anticancer activity against human A2780 cells by CCK8 assay
HepG2 [7] = assay: Anticancer activity against human HepG2 cells by CCK8 assay
OVCAR-3 = assay: Anticancer activity against human OVCAR3 cells by CCK8 assay
MCF7 [8] = assay: Cytotoxicity against human MCF7 cells assessed as reduction in cell viability after 48 hrs by MTT assay; settings: MCF7, 48 h
HepG2 [9] = assay: Cytotoxicity against human HepG2 cells assessed as reduction in cell viability after 48 hrs by MTT assay; settings: HepG2, 48 h
MDA-MB-231 = assay: Cytotoxicity against human MDA-MB-231 cells assessed as reduction in cell viability after 96 hrs by MTT assay; settings: MDA-MB-231, 96 h
HT-29 = assay: Cytotoxicity against human HT-29 cells assessed as reduction in cell viability after 96 hrs by MTT assay; settings: HT-29, 96 h
HCT-116 = assay: Cytotoxicity against human HCT116 cells assessed as reduction in cell viability after 96 hrs by MTT assay; settings: HCT-116, 96 h
DU-145 = assay: Cytotoxicity against human DU145 cells assessed as reduction in cell viability after 24 hrs by MTT assay; settings: DU-145, 24 h
BT-20 = assay: Cytotoxicity against human BT20 cells assessed as reduction in cell viability after 24 hrs by MTT assay; settings: BT-20, 24 h
A549 [10] = assay: Cytotoxicity against human A549 cells assessed as reduction in cell viability after 24 hrs by MTT assay; settings: A549, 24 h
SK-MEL-28 = assay: Cytotoxicity against human SK-MEL-28 cells assessed as reduction in cell viability after 24 hrs by MTT assay; settings: SK-MEL-28, 24 h
A549 [11] = assay: Cytotoxicity against human A549 cells assessed as reduction in cell viability by MTT assay

SMILES: C/C(=N\Nc1c(Cl)cc(Cl)cc1Cl)c1ccc(NS(=O)(=O)c2ccc3oc(=O)ccc3c2)cc1
- IC50 (HepG2 [1]): 5.03 to 175 µM
- IC50 (MCF7 [2]): 5.03 to 175 µM
- IC50 (Caco-2 [3]): 5.03 to 175 µM

SMILES: O=c1cc(Cn2cc(-c3ccccc3)nn2)c2cc(O)c(O)cc2o1
- IC50 (HeLa): 9.7 to 81.9 µM
- IC50 (Caco-2 [4]): 9.7 to 81.9 µM
- IC50 (K562): 9.7 to 81.9 µM

SMILES: Cc1ccc2oc(=O)cc(CSc3nc(-c4ccccc4)c(C#N)c(N4CCNCC4)n3)c2c1
- IC50 (MCF7 [5]): 5.5 to 91.1 µM
- IC50 (HepG2 [6]): 5.5 to 91.1 µM

SMILES: CCN(CC)c1ccc2cc(C(=O)N3CCN(CCC[C@H]4O[C@@H]5O[C@@]6(C)CC[C@H]7[C@H](C)CC[C@@H]([C@H]4C)[C@@]57OO6)CC3)c(=O)oc2c1
- IC50 (Hep 3B2): 3.05 to 5.82 µM
- IC50 (A2780): 3.05 to 5.82 µM
- IC50 (HepG2 [7]): 3.05 to 5.82 µM
- IC50 (OVCAR-3): 3.05 to 5.82 µM

SMILES: Cc1cc(-c2cc3ccccc3oc2=O)n(-c2nc(-c3ccc(Cl)cc3)cs2)n1
- IC50 (MCF7 [8]): 4.03 to 31.5 µM
- IC50 (HepG2 [9]): 3.06 to 3.74 µM

SMILES: Cc1cc(C)c2c(Cn3cc(CO[C@H]4O[C@@H]5O[C@@]6(C)CC[C@H]7[C@H](C)CC[C@@H]([C@H]4C)[C@@]57OO6)nn3)cc(=O)oc2c1
- IC50 (MDA-MB-231): 8.57 to 100 µM
- IC50 (HT-29): 8.57 to 100 µM
- IC50 (HCT-116): 8.57 to 100 µM

SMILES: C[C@H]1[C@@H](OCc2cn(Cc3cc(=O)oc4cc(O)ccc34)nn2)O[C@@H]2O[C@@]3(C)CC[C@H]4[C@H](C)CC[C@@H]1[C@@]24OO3
- IC50 (MDA-MB-231): 8.57 to 100 µM
- IC50 (HT-29): 8.57 to 100 µM
- IC50 (HCT-116): 8.57 to 100 µM

SMILES: Cc1ccc2oc(=O)cc(Cn3cc(CO[C@H]4O[C@@H]5O[C@@]6(C)CC[C@H]7[C@H](C)CC[C@@H]([C@H]4C)[C@@]57OO6)nn3)c2c1
- IC50 (MDA-MB-231): 8.57 to 100 µM
- IC50 (HT-29): 8.57 to 100 µM
- IC50 (HCT-116): 8.57 to 100 µM

SMILES: CCN(CC)c1ccc2cc(C(=O)N3CCN(C(=O)CN4CCN(CCC[C@H]5O[C@@H]6O[C@@]7(C)CC[C@H]8[C@H](C)CC[C@@H]([C@H]5C)[C@@]68OO7)CC4)CC3)c(=O)oc2c1
- IC50 (Hep 3B2): 2.33 to 23.7 µM
- IC50 (A2780): 2.33 to 23.7 µM
- IC50 (HepG2 [7]): 2.33 to 23.7 µM
- IC50 (OVCAR-3): 2.33 to 23.7 µM

SMILES: O=C(Cn1nc(Cc2ccc(Br)cc2)[nH]c1=O)NNC(=O)c1cc2cc(Cl)cc(Cl)c2oc1=O
- IC50 (DU-145): 3.1 to 37.9 µg/mL (≈ 5.47 to 66.8 µM)
- IC50 (BT-20): 3.1 to 37.9 µg/mL (≈ 5.47 to 66.8 µM)
- IC50 (A549 [10]): 3.1 to 37.9 µg/mL (≈ 5.47 to 66.8 µM)
- IC50 (SK-MEL-28): 3.1 to 37.9 µg/mL (≈ 5.47 to 66.8 µM)

SMILES: CCN(CC)c1ccc2cc(C(=O)NCCNC(=O)CN3CCN(CCC[C@H]4O[C@@H]5O[C@@]6(C)CC[C@H]7[C@H](C)CC[C@@H]([C@H]4C)[C@@]57OO6)CC3)c(=O)oc2c1
- IC50 (Hep 3B2): 2.33 to 23.7 µM
- IC50 (A2780): 2.33 to 23.7 µM
- IC50 (HepG2 [7]): 2.33 to 23.7 µM
- IC50 (OVCAR-3): 2.33 to 23.7 µM

SMILES: Cc1ccc2oc(=O)cc(CSc3nc(-c4ccccc4)c(C#N)c(N4CCOCC4)n3)c2c1
- IC50 (MCF7 [5]): 5.5 to 91.1 µM
- IC50 (HepG2 [6]): 5.5 to 91.1 µM

SMILES: CCN(CC)c1ccc2cc(C(=O)NNC(=O)Cn3nc(Cc4cccc(Br)c4)[nH]c3=O)c(=O)oc2c1
- IC50 (DU-145): 3.1 to 37.9 µg/mL (≈ 5.44 to 66.6 µM)
- IC50 (BT-20): 3.1 to 37.9 µg/mL (≈ 5.44 to 66.6 µM)
- IC50 (A549 [10]): 3.1 to 37.9 µg/mL (≈ 5.44 to 66.6 µM)
- IC50 (SK-MEL-28): 3.1 to 37.9 µg/mL (≈ 5.44 to 66.6 µM)

SMILES: COc1ccccc1-c1cn(Cc2cc(=O)oc3cc(O)c(O)cc23)nn1
- IC50 (HeLa): 9.7 to 81.9 µM
- IC50 (Caco-2 [4]): 9.7 to 81.9 µM
- IC50 (K562): 9.7 to 81.9 µM

SMILES: CCN(CC)c1ccc2cc(C(=O)NNC(=O)Cn3nc(Cc4ccc(Cl)c(Cl)c4)[nH]c3=O)c(=O)oc2c1
- IC50 (DU-145): 3.1 to 37.9 µg/mL (≈ 5.54 to 67.7 µM)
- IC50 (BT-20): 3.1 to 37.9 µg/mL (≈ 5.54 to 67.7 µM)
- IC50 (A549 [10]): 3.1 to 37.9 µg/mL (≈ 5.54 to 67.7 µM)
- IC50 (SK-MEL-28): 3.1 to 37.9 µg/mL (≈ 5.54 to 67.7 µM)

SMILES: Cc1ccc2oc(=O)cc(CSc3nc(NCc4ccccc4)c(C#N)c(-c4ccccc4)n3)c2c1
- IC50 (MCF7 [5]): 5.5 to 91.1 µM
- IC50 (HepG2 [6]): 5.5 to 91.1 µM

SMILES: Cc1cc(=O)oc2cc(NC(=O)CNCc3cccnc3)ccc12
- IC50 (MCF7 [5]): 69.1 to 378 µM
- IC50 (A549 [11]): 69.1 to 378 µM

SMILES: Cc1ccc2oc(=O)cc(CSc3nc(NN)c(C#N)c(-c4ccccc4)n3)c2c1
- IC50 (MCF7 [5]): 6.9 µM
- IC50 (HepG2 [6]): 5.5 µM

SMILES: O=c1ccc2ccccc2o1 [COUMARIN]
- IC50 (Hep 3B2): > 100 µM
- IC50 (A2780): > 100 µM
- IC50 (HepG2 [7]): > 100 µM
- IC50 (OVCAR-3): > 100 µM
